Data published in ChEMBL document CHEMBL3045315, “Effect of ring A and ring B substitution on the cytotoxic potential of pyrazole tethered chalcones” (Med Chem Res, 2012).
pIC50: −log10 of the molar value.

Columns and labels:
Type in all cases: functional, cell-based
[1] = system: PC-3; assay: Cytotoxicity against Homo sapiens (human) PC3 cells after 48 hr by SRB assay; settings: PC-3, 48 h
[2] = system: HEp-2; assay: Cytotoxicity against Homo sapiens (human) Hep2 cells after 48 hr by SRB assay; settings: HEp-2, 48 h
[3] = system: IMR-32; assay: Cytotoxicity against Homo sapiens (human) IMR32 cells after 48 hr by SRB assay; settings: IMR-32, 48 h
[4] = system: OVCAR; assay: Cytotoxicity against Homo sapiens (human) OVCAR cells after 48 hr by SRB assay

Structure (SMILES) | pIC50 [1] | pIC50 [2] | pIC50 [3] | pIC50 [4]
COc1ccc(C2CC(c3ccc4ccccc4c3)=NN2C(C)=O)cc1O (centres undefined) | 5.69 | 5.99 | 5.83 | 5.67
COc1ccc(C2CC(c3ccco3)=NN2C(C)=O)cc1OC (centres undefined) | 4.91 | 5.00 | 4.95 | 4.51
CC(=O)N1N=C(c2cccc3ccccc23)CC1c1ccc2c(c1)OCO2 (centres undefined) | 5.68 | 5.97 | 5.72 | 5.42
CC(=O)N1N=C(c2ccco2)CC1c1cccc([N+](=O)[O-])c1 (centres undefined) | 4.70 | 4.52 | 4.54 | 4.63
COc1cc(C2CC(c3ccccc3)=NN2C(C)=O)ccc1O (centres undefined) | 5.12 | 5.30 | 5.24 | 5.18
COc1cc(C2CC(c3ccccc3)=NN2C(C)=O)cc(OC)c1OC (centres undefined) | 5.47 | 5.45 | 5.47 | 5.33
